Literature values, collected in patent publication US10729793B2, “Method for imaging arthritis” (GUY'S AND ST THOMAS' HOSPITAL NHS FOUNDATION TRUST, priority 2015, dated 2020).
*1 amine or outer side, *2 acyl side, *3 side chain or, on linkers, in order; H or OH if unused. Where a SMILES comes first, the peptide text is derived from it. Bridges are numbered along the chain shown (N, C = ends). Side-chain parts run from the residue outwards. The star is where a group is joined. X1 = C/C(=N/O)C(C)(C)NCCC(CCNC(C)(C)/C(C)=N\O)CCN*; Glutaryl = O=C(CCCC(=O)[*:2])[*:1]; X2 = NC(=O)COCC(=O)NCCOCCOCCOCCN*

How the values were obtained:
[1] = biological target: αvβ3 integrin (Homo sapiens, UniProt P05106+P06756); conditions: in vitro studies
αvβ3 integrin, sequence (P06756 31-889 limits assumed): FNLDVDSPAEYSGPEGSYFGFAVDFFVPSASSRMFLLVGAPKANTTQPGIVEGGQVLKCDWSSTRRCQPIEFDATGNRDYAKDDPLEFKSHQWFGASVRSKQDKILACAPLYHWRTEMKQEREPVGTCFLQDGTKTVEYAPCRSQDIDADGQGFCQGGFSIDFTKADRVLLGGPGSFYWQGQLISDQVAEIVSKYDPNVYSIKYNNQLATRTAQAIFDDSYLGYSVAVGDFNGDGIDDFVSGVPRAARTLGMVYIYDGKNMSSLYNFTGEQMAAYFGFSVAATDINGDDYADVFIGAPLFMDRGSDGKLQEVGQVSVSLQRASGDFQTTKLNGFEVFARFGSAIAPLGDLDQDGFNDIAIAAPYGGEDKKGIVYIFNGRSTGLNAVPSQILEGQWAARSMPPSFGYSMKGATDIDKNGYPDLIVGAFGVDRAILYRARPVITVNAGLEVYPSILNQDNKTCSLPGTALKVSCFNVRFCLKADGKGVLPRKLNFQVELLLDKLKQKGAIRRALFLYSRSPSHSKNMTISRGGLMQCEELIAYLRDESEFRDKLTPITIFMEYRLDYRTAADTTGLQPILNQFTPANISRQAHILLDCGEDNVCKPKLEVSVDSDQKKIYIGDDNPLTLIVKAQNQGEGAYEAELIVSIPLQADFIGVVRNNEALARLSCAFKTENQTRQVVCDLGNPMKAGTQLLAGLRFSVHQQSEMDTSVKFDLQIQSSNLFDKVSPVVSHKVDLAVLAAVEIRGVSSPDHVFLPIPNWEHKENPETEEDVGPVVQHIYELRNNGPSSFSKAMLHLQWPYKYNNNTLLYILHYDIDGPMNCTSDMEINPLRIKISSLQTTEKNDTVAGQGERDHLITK
αvβ3 integrin, sequence (P06756 891-1048 partner limits assumed): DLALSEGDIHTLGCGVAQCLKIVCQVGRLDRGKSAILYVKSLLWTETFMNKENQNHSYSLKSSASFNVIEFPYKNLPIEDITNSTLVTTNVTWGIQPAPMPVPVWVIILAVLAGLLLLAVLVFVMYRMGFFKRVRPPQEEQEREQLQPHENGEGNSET
αvβ3 integrin, sequence (P05106 27-788): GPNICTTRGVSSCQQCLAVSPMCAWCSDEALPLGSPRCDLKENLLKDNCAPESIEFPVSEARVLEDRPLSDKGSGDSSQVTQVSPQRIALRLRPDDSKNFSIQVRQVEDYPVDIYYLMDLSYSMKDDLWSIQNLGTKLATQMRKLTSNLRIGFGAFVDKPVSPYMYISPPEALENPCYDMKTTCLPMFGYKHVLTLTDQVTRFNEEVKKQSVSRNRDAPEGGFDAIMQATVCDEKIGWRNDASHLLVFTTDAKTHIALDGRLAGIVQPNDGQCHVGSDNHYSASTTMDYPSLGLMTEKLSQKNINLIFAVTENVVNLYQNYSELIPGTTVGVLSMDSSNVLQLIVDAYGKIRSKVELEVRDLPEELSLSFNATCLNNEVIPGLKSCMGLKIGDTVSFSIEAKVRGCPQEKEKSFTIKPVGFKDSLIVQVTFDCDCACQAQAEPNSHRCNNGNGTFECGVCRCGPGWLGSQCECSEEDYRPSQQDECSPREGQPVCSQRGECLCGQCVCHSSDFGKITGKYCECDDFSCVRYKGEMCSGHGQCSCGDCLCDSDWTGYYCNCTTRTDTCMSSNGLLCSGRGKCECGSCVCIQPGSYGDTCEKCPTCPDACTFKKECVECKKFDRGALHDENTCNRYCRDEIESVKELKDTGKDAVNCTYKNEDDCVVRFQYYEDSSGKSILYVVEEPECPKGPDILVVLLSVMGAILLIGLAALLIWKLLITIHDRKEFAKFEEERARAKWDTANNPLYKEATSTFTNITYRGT

[2] = healthy volunteers
[3] = 10 subjects, at 4 months

Structure (SMILES): C/C(=N/O)C(C)(C)NCCC(CCNC(=O)CCCC(=O)NCCCC[C@@H]1NC(=O)CSC[C@@H](C(=O)NCCOCCOCCOCCNC(=O)COCC(N)=O)NC(=O)[C@H](Cc2ccccc2)NC(=O)[C@@H]2CSSC[C@H](NC1=O)C(=O)N[C@@H](CCCNC(=N)N)C(=O)NCC(=O)N[C@@H](CC(=O)O)C(=O)N2)CCNC(C)(C)/C(C)=N\O (stereo partly drawn) [NC100692, maraciclatide] ({CH2CO}-K([Glutaryl-X1])CRGDCFC-X2; disulfide 2-6; thioether N-8)
- binding affinity for the αvβ3 integrin [1]: high binding affinity
- mean elimination half-life [2]: approximately one
- antibodies to the peptide (immunogenicity) [3]: no detectable antibodies
